Results on 10 compounds are retold here after US10774074B2, “2-(1-heteroarylpiperazin-4-yl)methyl-1,4-benzodioxane derivatives as alpha2C antagonists” (ORION CORPORATION, priority 2015, dated 2020).

Where a name gives a salt, the structure may show the parent alone. Some results are limits rather than exact numbers.

One assay has as its target T1, human alpha2A receptors (Homo sapiens, UniProt P08913).
T1 construct: host or cells: CHO cells, cotransfected with pCEP-Gα16
T1 sequence (P08913 1-465): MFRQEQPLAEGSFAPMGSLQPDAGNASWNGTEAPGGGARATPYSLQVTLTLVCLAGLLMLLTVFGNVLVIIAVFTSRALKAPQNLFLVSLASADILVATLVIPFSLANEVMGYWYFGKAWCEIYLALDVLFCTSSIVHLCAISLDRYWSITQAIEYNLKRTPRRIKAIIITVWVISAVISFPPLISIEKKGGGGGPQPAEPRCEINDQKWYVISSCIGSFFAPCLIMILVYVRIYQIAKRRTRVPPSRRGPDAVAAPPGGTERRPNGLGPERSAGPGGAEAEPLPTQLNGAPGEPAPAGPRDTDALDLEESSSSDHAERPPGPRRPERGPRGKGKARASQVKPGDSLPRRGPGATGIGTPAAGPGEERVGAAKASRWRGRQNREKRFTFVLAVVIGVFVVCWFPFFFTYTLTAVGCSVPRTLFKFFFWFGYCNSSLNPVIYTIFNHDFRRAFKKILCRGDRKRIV
The assay is described as follows: Determination of alpha2A antagonistic activity in vitro (FLIPR calcium assay, CHO cells). To be noted: for Kb: Kb calculated with the Cheng-Prusoff equation from IC50, adrenaline as agonist, CHO cells, human alpha2A, read-out: Alpha 2A Adrenaline Kb; for IC50: antagonism of adrenaline stimulation, CHO cells stably transfected with human alpha2A receptor and Gα16, intracellular calcium (FLIPR), read-out: Alpha 2A Adrenaline IC50. The assay is classed as cell-based. As for the experimental part:
(§1) EXPERIMENT 1: Determination of alpha2A and alpha2C Antagonistic Activity In Vitro
(§2) Chinese hamster ovary (CHO) cells stably transfected with human alpha2A or alpha2C receptors (University of Turku, Finland) were cotransfected with the expression vector pCEP-Gα16 (Molecular Devices, CA, USA) were used in this experiment. The cells were maintained at 37° C. in a 5% CO2/95% air atmosphere. The cells were cultured in HAM F-12 medium supplemented with 10% FCS, 25 mM HEPES, 100 IU/ml penicillin, 100 µg/ml streptomycin, 500 μg/ml geneticin and 240 μg/ml hygromycin B. The cells were subcultured twice weekly with 0.25% trypsin and 1 mM EDTA. The subculture ratio was 1:5-1:20. The growth medium was changed every 2 or 3 days. All cell culture reagents were from Gibco. The day before the experiment the cells were plated into black-walled, clear bottom 384-well plates at a density of 10,000 cells/well.
(§3) The growth medium was removed and the cells were incubated with the test compounds and the FLIPR Calcium 6 Assay reagent (Molecular Devices, CA, USA) for 2 h at 37° C. in dark. The test compounds (concentrations in cells 100 pM-10 μM) were dissolved in Probenecid-Ringer consisting of 150 mM NaCl, 3 mM KCl, 1.2 mM MgCl2, 1 mM CaCl2, 5 mM glucose, 20 mM HEPES and 2.5 mM probenecid (pH 7.4 adjusted with 1.0 M NaOH). The osmolarity was adjusted to 322 milliosmoles with Osmostat® OM-6020 osmometer (DIC Kyoto Daiichi Kagagu Co. Ltd, Japan). […] All experiments were performed at 37° C. For agonism measurements the test compounds dissolved in Probenecid-Ringer were applied by FLIPR Tetra at 15 s time point. In order to determine antagonism, the cells were stimulated either with 100 nM adrenaline or noradrenaline and the test compounds were added to the cells 2 h before the experiment with the FLIPR Calcium 6 Assay reagent. […] Typically, there were four replicates at each concentration and six different dose levels. For example, if the number of plates from which results were obtained was three, 72 (4*6*3) wells were thus measured to construct dose-response relationship. The samples were excited at 485 nm and emission was detected at 525 nm with a 515 nm cut-off filter. The minimum fluorescence value subtracted from the maximum value for each well was used in the calculations. ScreenWorks version 4.0 software was used for analyzing the results. Fitting of the antagonist dose-response results was performed with the free Hill equation and the IC50 values were fitted with IDBS XE software using model 200: y=(A+(B/(1+((x/C)^D)))), where A is the curve maximum, B the curve minimum and C equals the EC50 value. D is slope factor (Hill). Kb was calculated with the Cheng-Prusoff equation Kb=A/((B/C)+1), where A is the IC50 of antagonist, B the concentration of agonist and C the EC50 of the agonist.

The target in a further assay is T2, human alpha2C receptors (Homo sapiens, UniProt P18825).
T2 construct: host or cells: CHO cells, cotransfected with pCEP-Gα16
T2 sequence (P18825 1-462): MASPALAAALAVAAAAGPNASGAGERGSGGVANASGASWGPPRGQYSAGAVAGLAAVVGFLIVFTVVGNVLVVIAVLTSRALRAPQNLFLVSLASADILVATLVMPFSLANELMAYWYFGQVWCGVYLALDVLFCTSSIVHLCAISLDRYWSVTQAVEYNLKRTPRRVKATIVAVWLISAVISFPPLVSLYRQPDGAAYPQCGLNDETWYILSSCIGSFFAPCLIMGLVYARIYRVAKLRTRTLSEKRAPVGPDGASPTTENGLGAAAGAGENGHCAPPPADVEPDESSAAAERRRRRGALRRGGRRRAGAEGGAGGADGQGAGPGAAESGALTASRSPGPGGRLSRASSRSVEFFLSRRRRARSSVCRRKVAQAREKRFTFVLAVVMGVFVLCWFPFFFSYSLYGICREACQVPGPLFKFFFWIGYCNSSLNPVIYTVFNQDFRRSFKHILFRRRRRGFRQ
Briefly: Determination of alpha2C antagonistic activity in vitro (FLIPR calcium assay, CHO cells). Type of assay: cell-based. The conditions noted are these: for Kb: Kb calculated with the Cheng-Prusoff equation from IC50, adrenaline as agonist, CHO cells, human alpha2C, read-out: Alpha 2C Adrenaline Kb; for IC50: antagonism of adrenaline stimulation, CHO cells stably transfected with human alpha2C receptor and Gα16, intracellular calcium (FLIPR), read-out: Alpha 2C Adrenaline IC50. As for the experimental part:
as §1, §2, §3

For the compound `CNC(=O)c1nsnc1N1CCN(C[C@H]2COc3ccccc3O2)CC1` [Compound of example 29, (S)-4-(4-((2,3-Dihydrobenzo[b][1,4]dioxin-2-yl)methyl)piperazin-1-yl)-N-methyl-1,2,5-thiadiazole-3-carboxamide hydrochloride], the figures for the Kb at human alpha2A receptors and at human alpha2C receptors were more than 449 nM and 4210 nM, respectively. For the same compound, the IC50 is more than 10000 nM on human alpha2A receptors and 424 nM on human alpha2C receptors.
For `O=C1NCCN1c1nsnc1N1CCN(C[C@H]2COc3ccccc3O2)CC1` [Compound of example 30, (S)-1-(4-(4-((2,3-Dihydrobenzo[b][1,4]dioxin-2-yl)methyl)piperazin-1-yl)-1,2,5-thiadiazol-3-yl)imidazolidin-2-one], in that order: more than 449 nM, 0.527 nM, more than 10000 nM and 0.054 nM.
For `Cc1nsc(N2CCN(C[C@H]3COc4ccccc4O3)CC2)c1N1CCCC1=O` [Compound of example 31, (S)-1-(5-(4-((2,3-Dihydrobenzo[b][1,4]dioxin-2-yl)methyl)piperazin-1-yl)-3-methylisothiazol-4-yl)pyrrolidin-2-one], in that order: more than 449 nM, 1.66 nM, more than 10000 nM and 0.17 nM.
On the same counts, the results for `CC(=O)c1nsnc1N1CCN(C[C@H]2COc3ccccc3O2)CC1` [Compound of example 33, (S)-1-(4-(4-((2,3-Dihydrobenzo[b][1,4]dioxin-2-yl)methyl)piperazin-1-yl)-1,2,5-thiadiazol-3-yl)ethanone] are more than 449 nM, 401 nM, more than 10000 nM and 40.4 nM.
Consider `CN(C)C(=O)c1nsnc1N1CCN(C[C@H]2COc3ccccc3O2)CC1` [Compound of example 34, (S)-4-(4-((2,3-Dihydrobenzo[b][1,4]dioxin-2-yl)methyl)piperazin-1-yl)-N,N-dimethyl-1,2,5-thiadiazole-3-carboxamide], for which, at human alpha2A receptors, the Kb is more than 449 nM and the IC50 is more than 10000 nM. At human alpha2C receptors, the Kb is 0.92 nM and the IC50 came to 0.09 nM.
`c1ccc2c(c1)OC[C@H](CN1CCN(c3nsc4cccnc34)CC1)O2` [Compound of example 36, (S)-3-(4-((2,3-Dihydrobenzo[b][1,4]dioxin-2-yl)methyl)piperazin-1-yl)isothiazolo[4,5-b]pyridine hydrochloride]: the Kb at human alpha2A receptors was 298 nM; at human alpha2C receptors, 135 nM. The IC50 is 6650 nM on human alpha2A receptors and 13.6 nM at human alpha2C receptors.
For `c1ccc(COc2ncccc2Nc2nsnc2N2CCN(C[C@H]3COc4ccccc4O3)CC2)cc1` [Compound of example 37, (S)—N-(2-(Benzyloxy)pyridin-3-yl)-4-(4-((2,3-dihydrobenzo[b][1,4]-dioxin-2-yl)methyl)piperazin-1-yl)-1,2,5-thiadiazol-3-amine hydrochloride], in that order: more than 449 nM, 73.1 nM, more than 10000 nM and 7.36 nM.
On the same counts, the results for `Cc1cc(N2CCN(C[C@H]3COc4ccccc4O3)CC2)n(-c2ccccn2)n1` [Compound of example 38, (S)-1-((2,3-Dihydrobenzo[b][1,4]dioxin-2-yl)methyl)-4-(3-methyl-1-(pyridin-2-yl)-1H-pyrazol-5-yl)piperazine] are 149 nM, 2.28 nM, 3320 nM and 0.23 nM.
On the same counts, the results for `COc1cccc(-n2nc(C)cc2N2CCN(C[C@H]3COc4ccccc4O3)CC2)n1` [Compound of example 39, (S)-1-((2,3-Dihydrobenzo[b][1,4]dioxin-2-yl)methyl)-4-(1-(6-methoxypyridin-2-yl)-3-methyl-1H-pyrazol-5-yl)piperazine] are 82 nM, 0.29 nM, 1830 nM and 0.03 nM.
As for `Cc1cccc(-n2nc(C)cc2N2CCN(C[C@H]3COc4ccccc4O3)CC2)n1` [Compound of example 40, (S)-1-((2,3-Dihydrobenzo[b][1,4]dioxin-2-yl)methyl)-4-(3-methyl-1-(6-methylpyridin-2-yl)-1H-pyrazol-5-yl)piperazine], the Kb is 100 nM at human alpha2A receptors and 2.57 nM at human alpha2C receptors. In addition, the values for the half-maximal inhibitory concentration (IC50) on human alpha2A receptors and on human alpha2C receptors were 2230 nM and 0.26 nM, respectively.
